From US20120220546A1, “COMPOSTIONS DESIGNED FOR THE INHIBITION AND/OR BLOCKING OF THE EPITHELIAL/MESENCHYMAL TRANSITION” (priority 2009, published 2012)

Tested on: zebrafish embryos
Experiment: Zebrafish embryo model of EMT inhibition
Assay type: in vivo
Conditions: 100 μM DAPT dissolved in the medium, 32-hpf embryos
Method: The necessary embryos to develop the study were obtained and kept at 28.5° C. in the incubator until the treatment was to begin (24 hpf and 32 hpf). The embryos were dechorionated at 24 hpf and deposited on a Petri dish with E3 medium. Prior to injecting the product, the fish were treated with 0.04% tricaine and, once they were asleep, they were placed on an agarose plate with a number of wedge-shaped grooves, where the embryos were aligned and immobilised in order to be injected. The mixture of the assay product to be injected was loaded in the injection capillary and a volume of 15 nl was injected in the perivitelline space. 20 embryos were injected per condition. […] These were deposited in 24-well plates (5 embryos per well) in 0.5 ml of E3 medium without methylene blue or antibiotic, and incubated at 28.5° C. until they were to be analyzed. As a control, embryos were injected with HBSS +0.5% rhodamine-dextran. […]
The embryos were analyzed at 53, 72 and 96 hpf, and the presence of the following phenotypes was searched for in each of the embryos used in the study: • alteration of the somite bonds (somite boundaries). • morphological alterations of the embryos in general. • appearance of edemas in the pericardial area. • morphological alterations in the heart, as well as alterations in blood circulation and alterations in the formation of the vascular system.

## C[C@H](NC(=O)Cc1cc(F)cc(F)c1)C(=O)N[C@H](C(=O)OC(C)(C)C)c1ccccc1 [DAPT]
  phenotype of positive control: appearance of pericardial edemas, alterations of the somite bonds, and alteration or absence of blood circulation
